These results are taken from patent publication US20100223839A1, “SYSTEMS AND PROCESSES FOR PRODUCING BIO-FUELS FROM LIGNOCELLULOSIC MATERIALS” (WASHINGTON STATE UNIVERSITY, priority 2009, published 2010).

This assay has as its system Saccharomyces cerevisiae. The assay can be described thus: Toxic effect of selected bio-oil model compounds on yeast growth (inhibition rate). The assay is classed as cell-based. Also noted: inhibition rate: unit not given here. The following applies: for inhibition of yeast growth, summary in words: summary of Table 4. An excerpt: The nature and the range of lethal concentrations of many of these toxic compounds was not well known. Thus, we carried out tests with model compounds to identify which of them were toxic to yeasts.
The toxic effects of selected bio-oil compounds (acetic acid, propanoic acid, cyclopentanone, 2-furaldehyde, furfuryl alcohol, phenol, eugenol, acetol, 2-(5H)-furanone, stilbene, vanillin, syringaldehyde, o-cresol) on Saccharomyces cerevisiae were studied.

The mark [1] stands for this setting: compound at 25% of CFBO (concentration found in bio-oils; Mallee fast pyrolysis oil, 500° C.).
Setting [2] is: compound at 50% of CFBO (concentration found in bio-oils; Mallee fast pyrolysis oil, 500° C.).
The mark [3] stands for this setting: compound at 75% of CFBO (concentration found in bio-oils; Mallee fast pyrolysis oil, 500° C.).
[4] abbreviates: compound at 100% of CFBO (concentration found in bio-oils; Mallee fast pyrolysis oil, 500° C.).

`O=C1C=CCO1` [2-(5H)-Furanone]: the “inhibition of yeast growth, summary in words” value (“inhibition of yeast growth” below) is “also inhibitors but their inhibition rate is much lower”.
Consider `O=Cc1ccco1` [2-furaldehyde], for which the “inhibition of yeast growth” value was “also inhibitors but their inhibition rate is much lower”.
Consider `CC(=O)O` [Acetic acid], for which the “inhibition of yeast growth” value is “most lethal compounds inhibiting yeast growth”.
`CC(=O)CO` [Acetol]: the inhibition rate runs as follows: under setting [1], 44.17; under setting [2], 77.80; under setting [3], 78.93; under setting [4], 80.07.
Regarding `C=CCc1ccc(O)c(OC)c1` [Eugenol], the “inhibition of yeast growth” value was “most lethal compounds inhibiting yeast growth”.
Consider `OCc1ccco1` [Furfuryl alcohol], for which the “inhibition of yeast growth” value is reported as “also inhibitors but their inhibition rate is much lower”.
For `Cc1ccccc1O` [O-cresol], the inhibition rate under setting [1] was determined as 2.61, the inhibition rate under setting [2] worked out at 14.16, the inhibition rate under setting [3] was 23.38 and the inhibition rate under setting [4] came out at 31.22.
As for `Cc1ccccc1C` [O-xylol], the inhibition rate is, setting by setting: under setting [1], 5.01; under setting [2], 5.23; under setting [3], 5.33; under setting [4], 5.44.
With `CCCCCCCCCCCCCCC` [Petadecane], the “inhibition of yeast growth” value was “also inhibitors but their inhibition rate is much lower”.
Consider `Oc1ccccc1` [Phenol], for which the “inhibition of yeast growth” value is on record as “most lethal compounds inhibiting yeast growth”.
With `CCC(=O)O` [Propanoic acid], the “inhibition of yeast growth” value is recorded as “most lethal compounds inhibiting yeast growth”.
Regarding `Oc1ccccc1O` [Pyrocatechol], the “inhibition of yeast growth” value was “most lethal compounds inhibiting yeast growth”.
For `COc1cc(C=O)cc(OC)c1O` [Syringaldehyde], the “inhibition of yeast growth” value is “most lethal compounds inhibiting yeast growth”.
Regarding `CCCCCCCCCCCCCC` [Tetradecane], the “inhibition of yeast growth” value is recorded as “also inhibitors but their inhibition rate is much lower”.
On to `COc1cc(C=O)ccc1O` [Vanillin], for which the “inhibition of yeast growth” value was “most lethal compounds inhibiting yeast growth”.
